In patent US9340500B2, “Aromatic heterocyclic derivative having TRPV4-inhibiting activity” (SHIONOGI & CO., LTD., priority 2011, dated 2016):
≈ marks a conversion by molar mass, not a printed value.

Target: T1, human TRPV4 (Homo sapiens (Human), UniProt Q9HBA0)
Experiment: Test Example 3: measurement of TRPV4 inhibitory activity (Fluo-3, FDSS 3000, 4α-PDD)
Assay type: cell-based
Details: hTRPV4/CHO cells, calculated from IC50 and 4α-PDD EC50
Description: (§1) For each compound, TRPV4 inhibitory activity was measured using cells.
(§2) (1) The TRPV4 inhibitory activity was measured using CHO-K1 cells stably expressing human TRPV4 (hTRPV4/CHO cells).
(2) Frozen cells were thawed and subcultured with the medium (MEM-α, 10% FBS, […], 50 unit/mL penicillin, 50 μg/mL streptomycin, 1 mg/mL G418).
(3) The 96-well plates which hTRPV4/CHO cells were seeded at densities of 2×10^4 cells/well in the culture medium and cultured in a CO2 incubator in the presence of 5% CO2 at 37° C. for 24 h was used as assay plates.
(4) The assay plate was washed with assay buffer (Hanks, […], […], pH7.4).
(5) Fluo-3, fluorescent dye for Ca influx assay was added to each well, then the assay plate was incubated in a CO2 incubator in the presence of 5% CO2 at 37° C. for one hour (final conc.; 5 μmmol/L Fluo-3).
(6) The assay plate was washed with the assay buffer, and the buffer was remained at 30 μL/well. Then the assay plate was incubated for 10 min at 37° C.
(7) Diluted compound solution was dispensed to each well in the compound plate, and mixed with built-in Pipette and Mixer of the fluorescence analysis system FDSS 3000 (Hamamatsu Photonics).
(8) 50 μL of 4α-PDD solution (concluding 0.1% Pluronic F-127) was applied to each well of assay plate and mixed.
(9) The fluorescent intensity was measured by FDSS 3000 for 8 min from the point of time addition the compound solution, at Ex 480 nm, Em 540 nm wavelength.
TRPV4 inhibitory activity (Ki value) of a compound was evaluated according to the following procedure.
(10) In the presence of the compound, the difference between maximal and minimal of fluorescent intensity value for 8 min from just before addition of 4α-PDD solution was calculated, and it was referred as Max-Min value. Max-Min value of the Ruthenium Red at 10 μM was defined as 100% inhibitory activity, Max-Min value in the absence of the compound was defined as 0% inhibitory activity. The TRPV4 inhibitory activity of the compound was calculated by the following formula. (1−(Max-Min value of the compound−100% inhibitory activity)/(0% inhibitory activity−100% inhibitory activity))×100 (11) By the following formula, inhibitory activity was calculated at 10 points with three fold serial dilution, in the final concentration of the compound from 10 μmmol/L to 0.5 nmol/L. The IC50 value was calculated by dose-response curve. 100−[(fluorescent intensity in the presence of the compound−fluorescent intensity of back ground)/(total fluorescent intensity−fluorescent intensity of back ground)]×100 (12) In the presence of the compound, activity of 4α-PDD was measured at 9 points with three fold serial dilution from 20 μmol/L. Activity of 4α-PDD was calculated by the following formula. (Max-Min value of the each 4α-PDD concentration−0% activity)/(100% activity−0% activity))×100 (13) Effective activity was calculated in 4α-PDD the above. The EC50 value was calculated by dose-response curve. (14) The Ki value of a compound was calculated by the following formula. Ki (nmol/L)=IC50 value (nmol/L)/([A]/EC50 value (nmol/L)) [A]; Concentration of agonist (nmol/L)

T1 sequence (Q9HBA0 whole entry): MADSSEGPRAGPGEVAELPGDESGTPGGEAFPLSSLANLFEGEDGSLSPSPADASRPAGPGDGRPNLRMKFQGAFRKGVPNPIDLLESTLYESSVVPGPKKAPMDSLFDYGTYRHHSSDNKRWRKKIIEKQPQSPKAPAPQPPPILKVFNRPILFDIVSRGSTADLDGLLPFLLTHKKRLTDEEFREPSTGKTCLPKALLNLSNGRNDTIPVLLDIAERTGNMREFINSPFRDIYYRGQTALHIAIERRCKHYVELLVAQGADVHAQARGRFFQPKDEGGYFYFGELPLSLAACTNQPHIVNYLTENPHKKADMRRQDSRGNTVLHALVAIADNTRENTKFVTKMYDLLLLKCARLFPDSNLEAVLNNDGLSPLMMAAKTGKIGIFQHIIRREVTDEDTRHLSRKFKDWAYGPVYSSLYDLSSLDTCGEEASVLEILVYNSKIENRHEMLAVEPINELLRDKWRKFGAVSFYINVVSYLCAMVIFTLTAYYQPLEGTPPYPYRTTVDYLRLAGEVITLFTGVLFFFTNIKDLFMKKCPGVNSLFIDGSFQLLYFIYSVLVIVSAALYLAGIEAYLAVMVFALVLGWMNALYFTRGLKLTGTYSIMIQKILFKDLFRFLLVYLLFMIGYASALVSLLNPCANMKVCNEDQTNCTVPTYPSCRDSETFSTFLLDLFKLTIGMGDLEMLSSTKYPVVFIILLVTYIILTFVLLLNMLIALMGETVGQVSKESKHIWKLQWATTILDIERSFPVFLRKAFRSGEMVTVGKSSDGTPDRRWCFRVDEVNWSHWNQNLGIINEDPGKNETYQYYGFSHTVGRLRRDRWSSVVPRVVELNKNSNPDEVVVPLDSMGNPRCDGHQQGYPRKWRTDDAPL

Point of comparison: `Cc1c(NS(=O)(=O)c2cccc(C(F)(F)F)c2)cc(-c2ccccc2)n1CCCN1CCOCC1` [Compound I-080], Ki 1.8 µM. Against it:
- Cc1c(C(=O)Nc2ccccc2C(F)(F)F)cc(-c2ccccc2)n1CCCN1CCOCC1 [Compound I-022] — within 1.5-fold, 2.48 µM
- Cc1c(C(=O)Nc2cccc(C(F)(F)F)c2)cc(-c2ccccc2)n1CCCN [Compound I-023] — 3-fold lower, 0.605 µM
- Cc1c(C(=O)Nc2cccc(C(F)(F)F)c2)cc(-c2ccccc2)n1CCCN(C)CC[C@H](O)[C@H](O)CO [Compound I-035] — 2.3-fold lower, 0.771 µM
- Cc1c(C(=O)Nc2cccc(C(F)(F)F)c2)cc(-c2ccccc2)n1CCCN(C)CC1CCN(C)CC1 [Compound I-039] — 6.4-fold lower, 0.282 µM
- Cc1c(C(=O)Nc2cccc(C(F)(F)F)c2)cc(-c2ccccc2)n1CCCN1CCNC(=O)C1 [Compound I-071] — 9.2-fold lower, 0.196 µM

Tested on: not listed separately
Experiment: Solubility test
Assay type: physicochemical
Details: artificial intestinal juice (phosphate buffer) with 1% DMSO, fassgf or other biorelevant, kinetic from dmso stock, artificial intestinal juice pH 6.8, 16 hours at 25° C.
Description: The solubility of each compound is determined under 1% DMSO addition conditions. A 10 mmol/L solution of the compound is prepared with DMSO, and 6 μL of the compound solution is added to 594 μL of an artificial intestinal juice (water and 118 mL of 0.2 mol/L NaOH reagent are added to 250 mL of 0.2 mol/L potassium dihydrogen phosphate reagent to reach 1000 mL) with a pH of 6.8. The mixture is left standing for 16 hours at 25° C., and the mixture is vacuum-filtered. The filtrate is two-fold diluted with methanol/water=1/1, and the compound concentration in the filtrate is measured with HPLC or LC/MS/MS by the absolute calibration method.

Point of comparison: `Cc1c(C(=O)Nc2cccc(C(F)(F)F)c2)cc(-c2ccccc2)n1CCCN1CCNC(=O)C1` [Compound I-071], solubility at 16 h 18.5 µM (≈ 8.96 µg/mL). Against it:
- Cc1c(C(=O)Nc2ccccc2C(F)(F)F)cc(-c2ccccc2)n1CCCN1CCOCC1 [Compound I-022] — higher, > 50 µM
- Cc1c(C(=O)Nc2cccc(C(F)(F)F)c2)cc(-c2ccccc2)n1CCCN(C)CC[C@H](O)[C@H](O)CO [Compound I-035] — higher, > 50 µM
- Cc1c(C(=O)Nc2cccc(C(F)(F)F)c2)cc(-c2ccccc2)n1CCCN(C)CC1CCN(C)CC1 [Compound I-039] — higher, > 50 µM
- Cc1c(C(=O)Nc2cccc(C(F)(F)F)c2)cc(C2CCNCC2)n1CCCN1CCOCC1 [Compound I-076] — higher, > 50 µM
- Cc1c(NS(=O)(=O)c2cccc(C(F)(F)F)c2)cc(-c2ccccc2)n1CCCN1CCOCC1 [Compound I-080] — within 1.5-fold, 24.3 µM (≈ 12.3 µg/mL)

Tested on: not listed separately
Experiment: Metabolism stability test
Assay type: in vitro ADME
Details: human liver microsomes, 30 minutes, compound concentration 0.5 μmol/L
Description: Using a commercially available pooled human hepatic microsomes, a test compound was reacted for a constant time, a remaining rate was calculated by comparing a reacted sample and an unreacted sample, thereby, a degree of metabolism in liver was assessed.
A reaction was performed (oxidative reaction) at 37° C. for 0 minute or 30 minutes in the presence of 1 mmol/L NADPH in 0.2 mL of a buffer (50 mmol/L Tris-HCl pH 7.4, 150 mmol/L potassium chloride, 10 mmol/L magnesium chloride) containing 0.5 mg protein/mL of human liver microsomes. After the reaction, 50 μL of the reaction mixture was added to 100 μL of a methanol/acetonitrile=1/1 (v/v), mixed and centrifuged at 3000 rpm for 15 minutes. The test compound in the supernatant was quantified by LC/MS/MS, and a remaining amount of the test compound after the reaction was calculated, letting a compound amount at 0 minute reaction time to be 100%. Hydrolysis reaction was performed in the absence of NADPH and glucuronidation reaction was in the presence of 5 mM UDP-glucuronic acid in place of NADPH, followed by similar operations.

Point of comparison: `Cc1c(C(=O)Nc2cccc(C(F)(F)F)c2)cc(-c2ccccc2)n1CCCN(C)CC[C@H](O)[C@H](O)CO` [Compound I-035], “remaining rate (metabolism stability)” value 82.2%. Against it:
- Cc1c(C(=O)Nc2cccc(C(F)(F)F)c2)cc(-c2ccccc2)n1CCCN [Compound I-023] — higher, 96.9%
- Cc1c(C(=O)Nc2cccc(C(F)(F)F)c2)cc(C2CCNCC2)n1CCCN1CCOCC1 [Compound I-076] — higher, 92.7%

Target: T1, human TRPV4
Experiment: Test Example 1: measurement of TRPV4 inhibitory activity (Fluo 4-AM, FLIPR TETRA, 4α-PDD 1 μmol/L)
Assay type: cell-based
Details: hTRPV4/CHO cells, 4α-PDD 1 μmol/L
Description: as §1, §2
(2) In the day before the experimental day, frozen cell were thawed and washed with the culture medium (MEM-α, 10% FBS, 2 mmol/L GlutaMax, 50 unit Penicillin, 50 μg/mL Streptomycin). Then cells were suspended in the culture medium.
(3) The 384-well plates which hTRPV4/CHO cells were seeded at densities of 4000 cells/well in the culture medium and cultured in a CO2 incubator in the presence of 5% CO2 at 37° C. for overnight was used as assay plates.
(4) The assay plate was washed with assay buffer (Hanks, 20 mmol/L HEPES, 2.5 mmol/L probenecid, pH7.4), and the buffer were remained at 20 μL/well.
(5) 10 μl of dye loading buffer (9 μmol/L Fluo 4-AM, 0.09% Pluronic F-127/assay buffer) was added to each well, then the assay plate was incubated in a CO2 incubator in the presence of 5% CO2 at 37° C. for one hour. (final 3 μmol/L Fluo4-AM).
(6) The assay plate was washed with the assay buffer, and the buffers were remained at 20 μL/well. Then the assay plate was incubated for 10 min at room temperature.
(7) Diluted compound solution was dispensed to each well in the compound plate, and mixed with built-in Pipette and Mixer of the Fluorescence analysis system FLIPR TETRA (Molecular devices).
(8) After incubation for 5 min, 20 μL of 4α-PDD solution were applied to each well of assay plate and mixed with the FLIPR TETRA. (final 1 μmol/L 4α-PDD)
(9) The fluorescent intensity was measured with FLIPR TETRA system for 10 min from the point of time addition the compound solution, at Ex 470-495 nm, Em 515-575 nm wavelength.
TRPV4 inhibitory activity (IC50 value and Ki value) of a compound was evaluated according to the following procedure.
(10) In the presence of the compound, the difference between maximal and minimal of fluorescent intensity value for 5 min from just before addition of 4α-PDD solution was calculated, and it was referred as Max-Min value. Max-Min value of the Ruthenium Red at 20 μM was defined as 100% inhibitory activity, Max-Min value in the absence of the compound was defined as 0% inhibitory activity. The TRPV4 inhibitory activity of the compound was calculated by the following formula. (1−(Max-Min value of the compound−100% inhibitory activity)/(0% inhibitory activity−100% inhibitory activity))×100 (11) Inhibitory activity was calculated at 10 points with three fold serial dilution, in the final concentration of the compound from 10 μmmol/L to 0.5 nmol/L, the IC50 value was calculated by logistic approximation method. (12) In the absence of the compound, the fluorescent intensity was measured as the same method with 10, 1, 0.5, 0.2, and 0 μmol/L as final concentration of 4α-PDD. The difference of minimal and maximal fluorescent intensity value for 5 min from just before addition of 4α-PDD solution was calculated, and it was referred as Max-Min value. Max-Min value of the 4α-PDD at 10 μmol/L was defined as 100% activity, Max-Min value in the absence of 4α-PDD was defined as 0% activity. The TRPV4 activity of each concentration of 4α-PDD was calculated by the following formula. (Max-Min value of the each 4α-PDD concentration−0% activity)/(100% activity−0% activity))×100 (13) Effective activity was calculated in 5 concentrations of 4α-PDD the above. The EC50 value was calculated by logistic approximation method. The Ki value of a compound was calculated by the following formula. Ki (nmol/L)=IC50 value (nmol/L)/(1+[…] (test 4α-PDD concentration (nmol/L)/EC50 value (nmol/L))

Point of comparison: `Cc1c(C(=O)Nc2ccccc2C(F)(F)F)cc(-c2ccccc2)n1CCCN1CCOCC1` [Compound I-022], IC50 2.4 µM. Against it:
- Cc1c(C(=O)Nc2cccc(C(F)(F)F)c2)cc(-c2ccccc2)n1CCCN1CCNC(=O)C1 [Compound I-071] — 9.2-fold lower, 0.26 µM
- Cc1c(C(=O)Nc2cccc(C(F)(F)F)c2)cc(C2CCNCC2)n1CCCN1CCOCC1 [Compound I-076] — 4-fold higher, 9.7 µM
- Cc1c(NS(=O)(=O)c2cccc(C(F)(F)F)c2)cc(-c2ccccc2)n1CCCN1CCOCC1 [Compound I-080] — 3.1-fold higher, 7.4 µM

Same assay, conditions: hTRPV4/CHO cells, calculated from IC50 and 4α-PDD EC50

With `Cc1c(C(=O)Nc2cccc(C(F)(F)F)c2)cc(C2CCNCC2)n1CCCN1CCOCC1` [Compound I-076] the Ki was 4.7 µM.
